Experimental data as given in ChEMBL document CHEMBL1201862, “PubChem BioAssay data set” (2004).
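Dose response: 5 concentrations. Exposure: 48 h. Format: 96-well plates. Endpoint: linear interpolation; highest concentration if not reached. Abbreviation: GI50, concentration required for 50% inhibition of growth.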 The source made the active and inactive calls. Cut-off read from the data, not from the text of the source: active = GI50 up to about 1.1 µM and inactive = higher.

What was measured:
Assay in all cases: NCI anticancer screen, dose series, 48 h
MDA-N = tested on: MDA-N
HOP-62 = tested on: HOP-62
HCT-15 = tested on: HCT-15
MOLT-4 = tested on: MOLT-4
UO-31 = tested on: UO-31
HCT-116 = tested on: HCT-116
TK-10 = tested on: TK-10
Malme-3M = tested on: Malme-3M
OVCAR-5 = tested on: OVCAR-5
NCI-H226 = tested on: NCI-H226
SF-539 = tested on: SF-539
A549 = tested on: A549
NCI/ADR-RES = tested on: NCI/ADR-RES
UACC-257 = tested on: UACC-257
CAKI-1 = tested on: CAKI-1
786-0 = tested on: 786-0
BT-549 = tested on: BT-549
HT-29 = tested on: HT-29
RXF 393 = tested on: RXF 393
SF-268 = tested on: SF-268

C=C(C(=O)OC)N1C(=O)CC(C)C1=O (stereo not given)
GI50 (MDA-N): 14.2 µM (inactive) | GI50 (HOP-62): 17.5 µM (inactive) | GI50 (HCT-15): 7.45 µM | GI50 (MOLT-4): 3.33 µM (inactive) | GI50 (UO-31): 13.1 µM (inactive) | GI50 (HCT-116): 6.67 µM (inactive) | GI50 (TK-10): 6.79 µM (inactive) | GI50 (Malme-3M): 2.45 µM (inactive) | GI50 (OVCAR-5): 15.1 µM (inactive) | GI50 (NCI-H226): 27 µM (inactive) | GI50 (SF-539): 19 µM (inactive) | GI50 (A549): 20.9 µM (inactive) | GI50 (NCI/ADR-RES): 15.6 µM (inactive) | GI50 (UACC-257): 12.3 µM (inactive) | GI50 (CAKI-1): 1.13 µM (inactive) | GI50 (786-0): 10.7 µM (inactive) | GI50 (BT-549): 14.6 µM (inactive) | GI50 (HT-29): 10.7 µM (inactive) | GI50 (RXF 393): 9.71 µM (inactive) | GI50 (SF-268): 16.7 µM (inactive)

NC(=O)c1cnc2sc3ccccc3n2c1=O
GI50 (MDA-N): > 100 µM (inactive) | GI50 (HOP-62): > 100 µM (inactive) | GI50 (HCT-15): > 100 µM | GI50 (MOLT-4): > 100 µM (inactive) | GI50 (UO-31): 77.1 µM (inactive) | GI50 (HCT-116): > 100 µM (inactive) | GI50 (TK-10): > 100 µM (inactive) | GI50 (Malme-3M): > 100 µM (inactive) | GI50 (OVCAR-5): > 100 µM (inactive) | GI50 (NCI-H226): 34.5 µM (inactive) | GI50 (SF-539): > 100 µM (inactive) | GI50 (A549): 67.9 µM (inactive) | GI50 (NCI/ADR-RES): > 100 µM (inactive) | GI50 (UACC-257): > 100 µM (inactive) | GI50 (CAKI-1): > 100 µM (inactive) | GI50 (786-0): > 100 µM (inactive) | GI50 (BT-549): > 100 µM (inactive) | GI50 (HT-29): > 100 µM (inactive) | GI50 (RXF 393): > 100 µM (inactive) | GI50 (SF-268): > 100 µM (inactive)

CCOC(=O)/C(=N\OC)C(O)C(F)(F)F (stereo not given)
GI50 (MDA-N): > 100 µM (inactive) | GI50 (HOP-62): > 100 µM (inactive) | GI50 (HCT-15): > 100 µM | GI50 (MOLT-4): > 100 µM (inactive) | GI50 (UO-31): > 100 µM (inactive) | GI50 (HCT-116): > 100 µM (inactive) | GI50 (TK-10): > 100 µM (inactive) | GI50 (Malme-3M): > 100 µM (inactive) | GI50 (OVCAR-5): > 100 µM (inactive) | GI50 (NCI-H226): > 100 µM (inactive) | GI50 (SF-539): > 100 µM (inactive) | GI50 (A549): > 100 µM (inactive) | GI50 (NCI/ADR-RES): > 100 µM (inactive) | GI50 (UACC-257): > 100 µM (inactive) | GI50 (CAKI-1): > 100 µM (inactive) | GI50 (786-0): > 100 µM (inactive) | GI50 (BT-549): > 100 µM (inactive) | GI50 (HT-29): > 100 µM (inactive) | GI50 (RXF 393): > 100 µM (inactive) | GI50 (SF-268): > 100 µM (inactive)

CCCCCCCCCCCCCCCCOP(=O)(O)OCC(NC(C)=O)C(=O)O (stereo not given)
GI50 (MDA-N): 54.2 µM (inactive) | GI50 (HOP-62): 19.2 µM (inactive) | GI50 (HCT-15): 18.2 µM | GI50 (MOLT-4): 24.2 µM (inactive) | GI50 (UO-31): > 100 µM (inactive) | GI50 (HCT-116): 36.4 µM (inactive) | GI50 (TK-10): 23.7 µM (inactive) | GI50 (Malme-3M): > 100 µM (inactive) | GI50 (OVCAR-5): > 100 µM (inactive) | GI50 (NCI-H226): 76 µM (inactive) | GI50 (SF-539): 32.4 µM (inactive) | GI50 (A549): > 100 µM (inactive) | GI50 (NCI/ADR-RES): > 100 µM (inactive) | GI50 (UACC-257): 54.1 µM (inactive) | GI50 (CAKI-1): 57 µM (inactive) | GI50 (786-0): 73.3 µM (inactive) | GI50 (BT-549): 18.8 µM (inactive) | GI50 (HT-29): > 100 µM (inactive) | GI50 (RXF 393): 21.7 µM (inactive) | GI50 (SF-268): 31 µM (inactive)

CCCCCCCCCCCCCCCCCCNc1ccn(C2OC(COP(=O)(O)OCC3OC(n4ccc(NC(=O)CCCCCCCCCCCCCCCCC)nc4=O)C(OC(C)=O)C3OC(C)=O)C(OC(C)=O)C2OC(C)=O)c(=O)n1 (stereo not given)
GI50 (MDA-N): > 100 µM (inactive) | GI50 (HOP-62): > 100 µM (inactive) | GI50 (HCT-15): > 100 µM | GI50 (MOLT-4): > 100 µM (inactive) | GI50 (UO-31): > 100 µM (inactive) | GI50 (HCT-116): > 100 µM (inactive) | GI50 (TK-10): > 100 µM (inactive) | GI50 (Malme-3M): > 100 µM (inactive) | GI50 (OVCAR-5): > 100 µM (inactive) | GI50 (NCI-H226): > 100 µM (inactive) | GI50 (SF-539): > 100 µM (inactive) | GI50 (A549): > 100 µM (inactive) | GI50 (NCI/ADR-RES): > 100 µM (inactive) | GI50 (UACC-257): > 100 µM (inactive) | GI50 (CAKI-1): > 100 µM (inactive) | GI50 (786-0): > 100 µM (inactive) | GI50 (BT-549): > 100 µM (inactive) | GI50 (HT-29): > 100 µM (inactive) | GI50 (RXF 393): > 100 µM (inactive) | GI50 (SF-268): > 100 µM (inactive)

CN1CN(c2ccccc2)C2(CCN(CCC3COc4ccccc4O3)CC2)C1=O (stereo not given)
GI50 (MDA-N): 19.8 µM (inactive) | GI50 (HOP-62): > 10 µM (inactive) | GI50 (HCT-15): 24.8 µM | GI50 (MOLT-4): 17 µM (inactive) | GI50 (UO-31): 13.5 µM (inactive) | GI50 (HCT-116): 5.92 µM (inactive) | GI50 (TK-10): 17.7 µM (inactive) | GI50 (Malme-3M): 19.5 µM (inactive) | GI50 (OVCAR-5): 18.6 µM (inactive) | GI50 (NCI-H226): 27.9 µM (inactive) | GI50 (SF-539): 18.8 µM (inactive) | GI50 (A549): 33.1 µM (inactive) | GI50 (NCI/ADR-RES): 19.7 µM (inactive) | GI50 (UACC-257): 12.5 µM (inactive) | GI50 (CAKI-1): 28.2 µM (inactive) | GI50 (786-0): 36.4 µM (inactive) | GI50 (BT-549): 18 µM (inactive) | GI50 (HT-29): 3.88 µM (inactive) | GI50 (RXF 393): 31.1 µM (inactive) | GI50 (SF-268): 33.8 µM (inactive)

CC[C@@]1(O)C(=O)OCc2c1cc1n(c2=O)Cc2c-1nc1ccccc1c2/C=N\NC(=O)C(N)CCSC (stereo not given in full)
GI50 (MDA-N): 0.224 µM (active) | GI50 (HOP-62): < 0.01 µM (active) | GI50 (HCT-15): 0.39 µM | GI50 (MOLT-4): < 0.01 µM (active) | GI50 (UO-31): < 0.0104 µM (active) | GI50 (HCT-116): 0.0253 µM (active) | GI50 (TK-10): 6.4 µM (inactive) | GI50 (Malme-3M): 0.102 µM (active) | GI50 (OVCAR-5): 0.774 µM (active) | GI50 (NCI-H226): < 0.016 µM (active) | GI50 (SF-539): < 0.01 µM (active) | GI50 (A549): 0.0183 µM (active) | GI50 (NCI/ADR-RES): 0.0395 µM (active) | GI50 (UACC-257): 0.228 µM (active) | GI50 (CAKI-1): < 0.01 µM (active) | GI50 (786-0): < 0.01 µM (active) | GI50 (BT-549): 0.102 µM (active) | GI50 (HT-29): 0.266 µM (active) | GI50 (RXF 393): < 0.0146 µM (active) | GI50 (SF-268): < 0.01 µM (active)

C(=C\c1ccccc1)/COc1ccccc1C(N1CCOCC1)n1nc2ccccc2n1 (stereo not given)
GI50 (MDA-N): 0.621 µM (active) | GI50 (HOP-62): 4.71 µM (inactive) | GI50 (HCT-15): 1.82 µM | GI50 (MOLT-4): 2.3 µM (inactive) | GI50 (UO-31): 9.86 µM (inactive) | GI50 (HCT-116): 5.31 µM (inactive) | GI50 (TK-10): 6.98 µM (inactive) | GI50 (Malme-3M): 2.99 µM (inactive) | GI50 (OVCAR-5): 14.1 µM (inactive) | GI50 (NCI-H226): 7.28 µM (inactive) | GI50 (SF-539): 2.59 µM (inactive) | GI50 (A549): 41 µM (inactive) | GI50 (NCI/ADR-RES): 3.69 µM (inactive) | GI50 (UACC-257): 5.51 µM (inactive) | GI50 (CAKI-1): 15.2 µM (inactive) | GI50 (786-0): 3.29 µM (inactive) | GI50 (BT-549): 7.55 µM (inactive) | GI50 (HT-29): 3 µM (inactive) | GI50 (RXF 393): 3.94 µM (inactive) | GI50 (SF-268): 5.71 µM (inactive)

COc1c(Cl)c(=O)oc2ccc(Cl)cc12
GI50 (MDA-N): > 100 µM (inactive) | GI50 (HOP-62): > 100 µM (inactive) | GI50 (HCT-15): > 100 µM | GI50 (MOLT-4): > 100 µM (inactive) | GI50 (UO-31): > 100 µM (inactive) | GI50 (HCT-116): > 100 µM (inactive) | GI50 (TK-10): > 100 µM (inactive) | GI50 (Malme-3M): > 100 µM (inactive) | GI50 (OVCAR-5): > 100 µM (inactive) | GI50 (NCI-H226): > 100 µM (inactive) | GI50 (SF-539): > 100 µM (inactive) | GI50 (A549): > 100 µM (inactive) | GI50 (NCI/ADR-RES): > 100 µM (inactive) | GI50 (UACC-257): > 100 µM (inactive) | GI50 (CAKI-1): > 100 µM (inactive) | GI50 (786-0): > 100 µM (inactive) | GI50 (BT-549): > 100 µM (inactive) | GI50 (HT-29): > 100 µM (inactive) | GI50 (RXF 393): > 100 µM (inactive) | GI50 (SF-268): > 100 µM (inactive)

NC1C/C(=N\O)c2c(I)sc(I)c21 (stereo not given)
GI50 (MDA-N): 19.8 µM (inactive) | GI50 (HOP-62): 18.2 µM (inactive) | GI50 (HCT-15): 13.4 µM | GI50 (MOLT-4): 3.05 µM (inactive) | GI50 (UO-31): 13 µM (inactive) | GI50 (HCT-116): 2.86 µM (inactive) | GI50 (TK-10): 16.9 µM (inactive) | GI50 (Malme-3M): 15.7 µM (inactive) | GI50 (OVCAR-5): 15.7 µM (inactive) | GI50 (NCI-H226): 18.4 µM (inactive) | GI50 (SF-539): 6.08 µM (inactive) | GI50 (A549): 16 µM (inactive) | GI50 (NCI/ADR-RES): 18.4 µM (inactive) | GI50 (UACC-257): 16 µM (inactive) | GI50 (CAKI-1): 15.2 µM (inactive) | GI50 (786-0): 16 µM (inactive) | GI50 (BT-549): 15.9 µM (inactive) | GI50 (HT-29): 19.2 µM (inactive) | GI50 (RXF 393): 21.3 µM (inactive) | GI50 (SF-268): 17.7 µM (inactive)
